Marks after values point to notes of the source that are not given here.
Columns and labels:
[1] = Collection capacity (Example 10); settings: 100 ppm starting concentration
Protocol: A water solution (110 ml) containing known amount of single cationic element or elements, typically 0.5-200 ppm, was prepared from Merch Titrisol® standard solution. After adjusting pH by using acid (e.g. HCl or HNO3) or base (e.g. NaOH) to desired initial value, sample A (10 ml) was taken followed by adding 100 mg of selected solid complexation agent. The mixture was stirred at room temperature for 24 h and sample B (10 ml) was taken. Samples A and B were filtrated separately trough 0.2 μm syringe filter and the concentration of the studied element or elements in both solution was determined by using atomic absorption spectrophotometer. The expulsion percent was determined from the concentration differences between the sample solutions A and B.
Capacity of 1a to collect selected metals were determined following the general procedure described above by using 100 ppm starting metal concentration in each experiment and 1a (100 mg) at selected pH. Amounts of removed metals from the mixture were determined by using AAS. Results are collected in table 5 and are given in mg of metal bound to 1 g of 1a.

[2] = Purification of water draining through the dump site, TS 1 (Example 16); settings: Mo^2+
[3] = Purification of ash water from toxic waste disposal plant, TS 3 (Example 18)
Protocol: An ash sample (200 g) obtained from toxic waste disposal plant was suspended to water (2.0 l) and stirred for 24 h and filtrated. Approximate metal concentrations (pH 3.62): 1-4 g/l of Ca^2+, K^+ and Na^+, 0.1-0.2 g/l of Al^3+, Mg^2+ and Zn^2+; ≦0.02 g/l of Cd^2+, Mn^2+, Pb^2+ and Sr^2+.
TS 3, TS 3 diluted to 1:10 (TS 3a), TS 3 diluted to 1:100 (TS 3b) and Cd^2+, Pb^2+ and Zn^2+ spiked samples TS 3a and TS 3b were each treated with 1a (1.0 g) with stirring for 24 h. These five samples were separately filtrated trough 0.2 μm syringe filter and metal concentrations in each solution were determined by ICP-AES method before and after treatment with 1a.

[4] = Collection of Sc^3+ from silicate soil (Example 25); settings: digested spiked silicate soil solution (20 ml); 1a 100 mg; 24 h
Protocol: Silicate soil (1000 g) was spiked with […] (767 mg). A sample (200 mg) was weighted to Teflon vial followed by adding concentrated HCl (9 ml) and HNO3 (3 ml) solutions. The mixture was heated under microwave for 50 min followed by adding HF (3 ml) and microvawe heating was continued until solids were dissolved totally. The resulting solution was treated with 4% H3BO3 (10 ml) with heating and sample A (5 ml) was taken. The rest of the solution (20 ml) was treated with 1a (100 mg) at room temperature for 24 h. After filtration trough 0.2 μm syringe filter Sc^3+ concentration before and after treated was determined by using AAS method to give 87% recovery of Sc^3+.

[5] = Collection of gold from TS 5 (Example 21); settings: Au^3+ spiked TS 5, pH 3.0, 1a 5 g
Protocol: (§1) A test solution containing 1-15 mg/l of Al^3+, Fe^2/3+, Mg^2+, Mn^2+, Ni^2+ and Zn^2+; 0.1-0.9 mg/l of Ca^2+ and Na^+; and trace amount of other Cr^3+, Co^2+, Cu^2+, Eu^3+, La^3+, Nd^3+, Y^3+, UO2^2+ and Nb^5+ cations were prepared.
TS 5 (100 ml) was spiked with Au^3+ (87.7 mg/ml) Merch Titrisol® standard solution. After pH of the mixture was adjusted to 3.0 by HNO3 sample A was taken followed by adding 1a (5 g). The mixture was stirred at room temperature for 24 h and a sample B was taken. Samples A and B were filtrated separately trough 0.2 μm syringe filter and the concentration of selected element in both solution was determined by using ICP-AES method. The expulsion percent for selected elements were determined from the concentration differences between the samples A and B. Results of gold recovery from TS 5 is given in Table 15.

[6] = Simultaneous collection of Ni^2+, Zn^2+, Eu^3+, La^3+, Nd^3+, Y^3+, UO2^2+, Nb^5+ and Zr^4+ from TS 5 (Example 22); settings: TS 5, 1a 1 g/100 ml, 24 h
Protocol: as §1
TS 5 (100 ml) was stirred with 1a (1 g) at room temperature for 24 h. After filtration trough 0.2 μm syringe filter metal concentration of Ni^2+, Zn^2+, Eu^3+, La^3+, Nd^3+, Y^3+, UO2^2+, Nb^5+ and Zr^4+ were determined by using ICP-AES and ICP-MS methods. The expulsions percent was calculated for each element from the concentration difference between initial and final solutions and the experimental results are given in Table 16.

NCCCCCCCCCCC(O)(P(=O)(O)O)P(=O)(O)O [Compound 1a, 11-Amino-1-hydroxyundecane-1,1-diyldiphosphonic acid]
Capacity ([1]; Ag^+, pH 2.5): 94.6 mg/g | Capacity ([1]; Au^3+, pH 4.0): 19.0 mg/g | Capacity ([1]; Ca^2+, pH 4.0): 50.9 mg/g | Capacity ([1]; Cd^2+, pH 4.0): 74.1 mg/g | Capacity ([1]; Co^2+, pH 4.5): 85.5 mg/g | Capacity ([1]; Cr^3+, pH 3.5): 9.9 mg/g | Capacity ([1]; Cu^2+, pH 4.0): 61.6 mg/g | Capacity ([1]; Fe^2+, pH 3.0): 82.7 mg/g | Capacity ([1]; Fe^3+, pH 3.0): 15.2 mg/g | Capacity ([1]; Mo^6+, pH 9.1): 97.2 mg/g | Capacity ([1]; Ni^2+, pH 4.0): 13.1 mg/g | Capacity ([1]; Pb^2+, pH 4.0): 85.6 mg/g | Capacity [mg/g] ([1]; Sc^3+, pH 2.0): 16.9^1) mg/g | Capacity ([1]; Zn^2+, pH 4.0): 70.9 mg/g | Expulsion [%] ([2]; Spiked TS 1): ≥ 52^2) % | Expulsion [%] ([2]; TS 1): ≥ 58^2) % | Expulsion [%] ([3]; Spiked TS 3a, Al^3+): ≥ 79.3^5) % | Expulsion [%] ([3]; Spiked TS 3a, Ca^2+): 88.9% | Expulsion [%] ([3]; Spiked TS 3a, Cd^2+): 75.6% | Expulsion [%] ([3]; Spiked TS 3a, K^+): 1.8% | Expulsion [%] ([3]; Spiked TS 3a, Na^+): 3.5% | Expulsion [%] ([3]; Spiked TS 3a, Pb^2+): ≥ 97.8^5) % | Expulsion [%] ([3]; Spiked TS 3a, Sr^2+): 14.6% | Expulsion [%] ([3]; Spiked TS 3a, Zn^2+): 93.6% | Expulsion [%] ([3]; Spiked TS 3b, Ca^2+): 95.2% | Expulsion [%] ([3]; Spiked TS 3b, Cd^2+): 96.2% | Expulsion [%] ([3]; Spiked TS 3b, K^+): 0.8% | Expulsion [%] ([3]; Spiked TS 3b, Na^+): 7.1% | Expulsion [%] ([3]; Spiked TS 3b, Pb^2+): ≥ 98.1^5) % | Expulsion [%] ([3]; Spiked TS 3b, Sr^2+): 60.2% | Expulsion [%] ([3]; Spiked TS 3b, Zn^2+): 91.3% | Expulsion [%] ([3]; TS 3, Al^3+): 3.4^ % | Expulsion [%] ([3]; TS 3, Ca^2+): 1.9% | Expulsion [%] ([3]; TS 3, Cd^2+): 2.1% | Expulsion [%] ([3]; TS 3, K^+): 2.9% | Expulsion [%] ([3]; TS 3, Mg^2+): 1.5% | Expulsion [%] ([3]; TS 3, Mn^2+): 1.9% | Expulsion [%] ([3]; TS 3, Na^+): 10.8% | Expulsion [%] ([3]; TS 3, Pb^2+): 65.7% | Expulsion [%] ([3]; TS 3, Sr^2+): 2.1% | Expulsion [%] ([3]; TS 3, Zn^2+): 3.6% | Expulsion [%] ([3]; TS 3a (TS 3 diluted 1:10), Al^3+): ≥ 71.8^5) % | Expulsion [%] ([3]; TS 3a (TS 3 diluted 1:10), Ca^2+): 88.1% | Expulsion [%] ([3]; TS 3a (TS 3 diluted 1:10), K^+): 0% | Expulsion [%] ([3]; TS 3a (TS 3 diluted 1:10), Na^+): 2.0% | Expulsion [%] ([3]; TS 3a (TS 3 diluted 1:10), Pb^2+): ≥ 35.5^5) % | Expulsion [%] ([3]; TS 3a (TS 3 diluted 1:10), Sr^2+): 12.5% | Expulsion [%] ([3]; TS 3a (TS 3 diluted 1:10), Zn^2+): 0.0% | Expulsion [%] ([3]; TS 3b (TS 3 diluted 1:100), Ca^2+): 93.1% | Expulsion [%] ([3]; TS 3b (TS 3 diluted 1:100), K^+): 1.6% | Expulsion [%] ([3]; TS 3b (TS 3 diluted 1:100), Na^+): 9.9% | Expulsion [%] ([3]; TS 3b (TS 3 diluted 1:100), Sr^2+): 53.4% | Expulsion [%] ([3]; TS 3b (TS 3 diluted 1:100), Zn^2+): ≥ 48.5^5) % | recovery of Sc^3+ [4]: 87% | Expulsion [%] ([5]; Al^3+): 87.9% | Expulsion [%] ([5]; Au^3+): 65.0^1) % | Expulsion [%] ([5]; Cr^3+): 2.6% | Expulsion [%] ([5]; Fe^2/3+): ≥ 96.6^2) % | Expulsion [%] ([5]; Mg^2+): 0% | Expulsion [%] ([5]; Mn^2+): 0% | Expulsion [%] ([5]; Ni^2+): 1.3% | Expulsion [%] ([5]; Zn^2+): 1.4% | Expulsion [%] ([6]; Eu^3+): 98% | Expulsion [%] ([6]; La^3+): 100% | Expulsion [%] ([6]; Nb^5+): 100% | Expulsion [%] ([6]; Nd^3+): 100% | Expulsion [%] ([6]; Ni^2+): 72% | Expulsion [%] ([6]; UO2^2+): 100% | Expulsion [%] ([6]; Y^3+): 100% | Expulsion [%] ([6]; Zn^2+): 97% | Expulsion [%] ([6]; Zr^4+): 100%

— patent publication US20140263071A1, “METHOD FOR COLLECTING METALS” (CHEMEC OY AB, priority 2011, published 2014)
